According to patent US9790229B2, “Bruton's tyrosine kinase inhibitors” (priority 2009, dated 2017):

Each compound was assayed against BTK (Homo sapiens (Human), UniProt Q06187) (assay: In vitro BTK kinase assay: BTK-POLYGAT-LS ASSAY). Settings: not given.
Chain of BTK (Q06187 whole entry): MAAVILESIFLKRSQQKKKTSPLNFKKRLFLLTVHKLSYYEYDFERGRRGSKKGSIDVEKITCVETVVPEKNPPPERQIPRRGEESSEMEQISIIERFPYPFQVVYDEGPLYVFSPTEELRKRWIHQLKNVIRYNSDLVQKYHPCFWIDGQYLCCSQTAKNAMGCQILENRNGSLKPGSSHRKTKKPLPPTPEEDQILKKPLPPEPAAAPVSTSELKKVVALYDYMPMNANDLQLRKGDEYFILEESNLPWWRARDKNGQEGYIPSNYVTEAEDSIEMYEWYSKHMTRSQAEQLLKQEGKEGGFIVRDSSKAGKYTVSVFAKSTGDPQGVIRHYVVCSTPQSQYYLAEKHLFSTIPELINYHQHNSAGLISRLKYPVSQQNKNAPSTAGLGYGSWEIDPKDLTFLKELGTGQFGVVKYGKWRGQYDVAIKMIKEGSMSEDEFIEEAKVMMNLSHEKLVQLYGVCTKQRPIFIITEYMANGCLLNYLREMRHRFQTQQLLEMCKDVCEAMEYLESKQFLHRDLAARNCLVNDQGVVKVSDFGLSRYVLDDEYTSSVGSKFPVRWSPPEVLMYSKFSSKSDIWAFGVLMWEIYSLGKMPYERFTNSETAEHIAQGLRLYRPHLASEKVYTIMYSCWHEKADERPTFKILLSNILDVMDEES

`Nc1ncnc(N2CC[C@H](C(F)(F)F)[C@@H](N3CCC[C@H](Nc4cc(Cl)cc(Cl)c4)C3=O)C2)c1F` [compound 338, trans (3S)-1′-(6-amino-5-fluoropyrimidin-4-yl)-3-(3,5-dichlorophenylamino)-4′-(trifluoromethyl)-1,3′-bipiperidin-2-one] and `Nc1ncnc(N2CC[C@@H](C(F)(F)F)[C@H](N3CCC[C@H](Nc4cc(Cl)cc(Cl)c4)C3=O)C2)c1F` [compound 336, trans (3S)-1′-(6-Amino-5-fluoropyrimidin-4-yl)-3-(3,5-dichlorophenylamino)-4′-(trifluoromethyl)-1,3′-bipiperidin-2-one] fall in the same range of IC50: 1000 to 10000 nM for the first, 1000 to 10000 nM for the second.

`O=c1nc(Nc2cccc(C3CCCN(c4ncnc5[nH]ccc45)C3)c2)[nH]c2c1CCCC2` (stereo not drawn) [compound 120, 2-(3-(1-(7H-pyrrolo[2,3-d]pyrimidin-4-yl)piperidin-3-yl)phenylamino)-5,6,7,8-tetrahydroquinazolin-4(1H)-one] and `O=C(NCC1(O)CCCCC1)Nc1cccc(C2CCCN(c3ncnc4[nH]ccc34)C2)c1` (stereo not drawn) [compound 184] fall in the same range of IC50: 1000 to 10000 nM for the first, 1000 to 10000 nM for the second.

`O=C(Nc1cccc(C2CCCN(c3ncnc4[nH]ccc34)C2)c1)Nc1ccccc1OC(F)F` (stereo not drawn) [compound 191] and `CS(=O)(=O)c1ccccc1NC(=O)Nc1cccc(C2CCCN(c3ncnc4[nH]ccc34)C2)c1` (stereo not drawn) [Cmpd 64, 1-(3-(1-(7H-pyrrolo[2,3-d]pyrimidin-4-yl)piperidin-3-yl)phenyl)-3-(2-(methylsulfonyl)phenyl)urea] fall in the same range of IC50: 1000 to 10000 nM for the first, 1000 to 10000 nM for the second.

Compared with `O=C(Nc1cccc(C2CCN(c3ncnc4[nH]ccc34)C2)c1)Nc1ccccc1N1CCCC1` (stereo not drawn) [compound 171], `CN(C)Cc1ccccc1NC(=O)Nc1cccc(C2CCCN(c3ncnc4[nH]ccc34)C2)c1` (stereo not drawn) [Cmpd 63, 1-(3-(1-(7H-pyrrolo[2,3-d]pyrimidin-4-yl)piperidin-3-yl)phenyl)-3-(2-((dimethylamino)methyl)phenyl)urea] is higher in IC50: 100 to 999 nM for the first, 1000 to 10000 nM for the second. The first is the more potent here.

First: CC(C)CCNC(=O)Nc1cccc(C2CCCN(c3ncnc4[nH]ccc34)C2)c1 (stereo not drawn) [compound 186]
Second: CCC(CC)CNC(=O)Nc1cccc(C2CCCN(c3ncnc4[nH]ccc34)C2)c1 (stereo not drawn) [compound 180]
The IC50 of the first is higher: 1000 to 10000 nM for the first, 100 to 999 nM for the second.

`CC(C)CN1CCN(c2ncnc3[nH]ccc23)CC1c1cccc(NC(=O)Nc2ccccc2)c1` (stereo not drawn) [compound 129, 1-(3-(1-isobutyl-4-(7H-pyrrolo[2,3-d]pyrimidin-4-yl)piperazin-2-yl)phenyl)-3-phenylurea] and `O=C(Nc1ccccc1)Nc1cccc(C2CN(c3ncnc4[nH]ccc34)CCN2)c1` (stereo not drawn) [compound 125, 1-(3-(4-(7H-pyrrolo[2,3-N]pyrimidin-4-yl)piperazin-2-yl)phenyl)-3-phenylurea] fall in the same range of IC50: 1000 to 10000 nM for the first, 1000 to 10000 nM for the second.

First: Nc1ncnc(N2CCC[C@@H](N3CCCC(Nc4cc(F)cc(Cl)c4)C3=O)C2)c1Cl (stereo partly drawn) [compound 289, (3′R)-1′-(6-Amino-5-chloropyrimidin-4-yl)-3-(3-chloro-5-fluorophenylamino)-1,3′-bipiperidin-2-one]
Second: CNc1ncnc(N2CCC[C@@H](N3CCCC(Nc4cc(F)cc(Cl)c4)C3=O)C2)c1F (stereo partly drawn) [compound 286, (3′R)-3-(3-Chloro-5-fluorophenylamino)-1′-(5-fluoro-6-(methylamino)pyrimidin-4-yl)-1,3′-bipiperidin-2-one]
The IC50 of the first is lower: 100 to 999 nM for the first, 1000 to 10000 nM for the second. The first is the more potent here.

`O=C(Nc1cccc(C2CCCN(c3ncnc4[nH]ccc34)C2)c1)Nc1cccnc1F` (stereo not drawn) [compound 197] and `O=C(Nc1ccc(Cl)cc1)Nc1cccc(C2CCCN(c3ncnc4[nH]ccc34)C2)c1` (stereo not drawn) [Cmpd 27, 1-(3-(1-(7H-pyrrolo[2,3-d]pyrimidin-4-yl)piperidin-3-yl)phenyl)-3-(4-chlorophenyl)urea] fall in the same range of IC50: 1000 to 10000 nM for the first, 1000 to 10000 nM for the second.

`O=C1[C@@H](Nc2ccccc2)CCN1[C@@H]1CCCN(c2ncnc3[nH]ccc23)C1` [compound 272] and `c1ccc(Nc2cccc(C3CCCN(c4ncnc5[nH]ccc45)C3)c2)nc1` (stereo not drawn) [compound 140, N-(3-(1-(7H-pyrrolo[2,3-d]pyrimidin-4-yl)piperidin-3-yl)phenyl)pyridin-2-amine] fall in the same range of IC50: 1000 to 10000 nM for the first, 1000 to 10000 nM for the second.

First: O=C(Nc1ccccc1)Nc1cccc(C2CCCN(c3ncnc4[nH]cnc34)C2)c1 (stereo not drawn) [Cmpd 103, 1-(3-(1-(9H-Purin-6-yl)piperidin-3-yl)phenyl)-3-phenylurea]
Second: Nc1ncnc(N2CCCC(c3cccc(NC(=O)Nc4ccccc4)c3)C2)c1Br (stereo not drawn) [Cmpd 101, 1-(3-(1-(6-Amino-5-bromopyrimidin-4-yl)piperidin-3-yl)phenyl)-3-phenylurea]
The IC50 of the first is lower: 100 to 999 nM for the first, 1000 to 10000 nM for the second.

`O=C(NCc1ccccc1)Nc1cccc(C2CCCN(c3ncnc4[nH]ccc34)C2)c1` (stereo not drawn) [compound 219] and `Cc1cc(NC(=O)Nc2cccc(C3CCCN(c4ncnc5[nH]ccc45)C3)c2)no1` (stereo not drawn) [Cmpd 57, 1-(3-(1-(7H-pyrrolo[2,3-d]pyrimidin-4-yl)piperidin-3-yl)phenyl)-3-(5-methylisoxazol-3-yl)urea] fall in the same range of IC50: 1000 to 10000 nM for the first, 1000 to 10000 nM for the second.

Same assay, conditions: read-out: IC50 (10 uM ATP)

For `Nc1ncnc(N2CCC[C@@H](N3CCC[C@H](Nc4cc(Cl)cc(C(F)(F)F)c4)C3=O)C2)c1F` [compound 312, (3S,3′R)-1′-(6-Amino-5-fluoropyrimidin-4-yl)-3-(3-chloro-5-(trifluoromethyl)phenylamino)-1,3′-bipiperidin-2-one], the IC50 was under 100 nM.

Same assay, conditions: read-out: IC50 (10 uM ATP); 10 uM ATP; in vitro Btk kinase assay, Example 41

`O=C(Nc1cccc(C2CCCN(c3ncnc4[nH]ccc34)C2)c1)c1ccccc1Cl` (stereo not drawn) [Cmpd 5, N-(3-(1-(7H-pyrrolo[2,3-d]pyrimidin-4-yl)piperidin-3-yl)phenyl)-2-chlorobenzamide] and `COc1ccccc1C(=O)Nc1cccc(C2CCCN(c3ncnc4[nH]ccc34)C2)c1` (stereo not drawn) [Cmpd 6, N-(3-(1-(7H-pyrrolo[2,3-d]pyrimidin-4-yl)piperidin-3-yl)phenyl)-2-methoxybenzamide] cannot be ordered by IC50: over 10000 nM for the first, over 10000 nM for the second.

`O=C(NCC1CCNC1)Nc1cccc(C2CCCN(c3ncnc4[nH]ccc34)C2)c1` (stereo not drawn) [compound 233] and `O=C(NCC1CCCNC1)Nc1cccc(C2CCCN(c3ncnc4[nH]ccc34)C2)c1` (stereo not drawn) [compound 229] cannot be ordered by IC50: over 10000 nM for the first, over 10000 nM for the second.

`CNc1c(Nc2cccc(C3CCCN(c4ncnc5[nH]ccc45)C3)c2)c(=O)c1=O` (stereo not drawn) [Cmpd 72, 3-(3-(1-(7H-pyrrolo[2,3-d]pyrimidin-4-yl)piperidin-3-yl)phenylamino)-4-(methylamino)cyclobut-3-ene-1,2-dione] and `O=c1c(Nc2ccccc2)c(Nc2cccc(C3CCCN(c4ncnc5[nH]ccc45)C3)c2)c1=O` (stereo not drawn) [Cmpd 69, 3-(3-(1-(7H-pyrrolo[2,3-d]pyrimidin-4-yl)piperidin-3-yl)phenylamino)-4-(phenylamino)cyclobut-3-ene-1,2-dione] cannot be ordered by IC50: over 10000 nM for the first, over 10000 nM for the second.

`Nc1ncnc(N2CC[C@@H](O)[C@H](N3CCC[C@@H](Nc4cc(Cl)cc(Cl)c4)C3=O)C2)c1F` [compound 327, trans (3R)-1′-(6-Amino-5-fluoropyrimidin-4-yl)-3-(3,5-dichlorophenylamino)-4′-hydroxy-1,3′-bipiperidin-2-one] and `Nc1ncnc(N2CCC[C@@H](N3CCCC(Nc4cc(Cl)c(F)c(Cl)c4)C3=O)C2)c1F` (stereo partly drawn) [compound 309, (3′R)-1′-(6-Amino-5-fluoropyrimidin-4-yl)-3-(3,5-dichloro-4-fluorophenylamino)-1,3′-bipiperidin-2-one] cannot be ordered by IC50: under 100 nM for the first, under 100 nM for the second.

`c1cnc(Nc2cccc(C3CCCN(c4ncnc5[nH]ccc45)C3)c2)nc1` (stereo not drawn) [compound 141, N-(3-(1-(7H-pyrrolo[2,3-d]pyrimidin-4-yl)piperidin-3-yl)phenyl)pyrimidin-2-amine] and `FC(F)(F)c1cccnc1Nc1cccc(C2CCCN(c3ncnc4[nH]ccc34)C2)c1` (stereo not drawn) [compound 143, N-(3-(1-(7H-pyrrolo[2,3-d]pyrimidin-4-yl)piperidin-3-yl)phenyl)-3-(trifluoromethyl)pyridin-2-amine] cannot be ordered by IC50: over 10000 nM for the first, over 10000 nM for the second.

`Cc1cc(NC(=O)Nc2cccc(C3CCCN(c4ncnc5[nH]ccc45)C3)c2)n(CCN(C)C)n1` (stereo not drawn) [compound 230] and `Cc1cc(NC(=O)Nc2cccc(C3CCCN(c4ncnc5[nH]ccc45)C3)c2)n(-c2ccccc2)n1` (stereo not drawn) [compound 227] cannot be ordered by IC50: over 10000 nM for the first, over 10000 nM for the second.

`COc1cccc(C(=O)Nc2cccc(C3CCCN(c4ncnc5[nH]ccc45)C3)c2)c1` (stereo not drawn) [Cmpd 7, N-(3-(1-(7H-pyrrolo[2,3-d]pyrimidin-4-yl)piperidin-3-yl)phenyl)-3-methoxybenzamide] and `O=C(Nc1cccc(C2CCCN(c3ncnc4[nH]ccc34)C2)c1)c1cccnc1` (stereo not drawn) [compound 12, N-(3-(1-(7H-pyrrolo[2,3-d]pyrimidin-4-yl)piperidin-3-yl)phenyl)nicotinamide] cannot be ordered by IC50: over 10000 nM for the first, over 10000 nM for the second.

`O=C1C(Nc2cc(Cl)cc(Cl)c2)CCCN1[C@@H]1CCCN(c2ncnc3[nH]ccc23)C1` (stereo partly drawn) [compound 276, (3′R)-3-(3,5-Dichloro-phenylamino)-1′-(7H-pyrrolo[2,3-d]pyrimidin-4-yl)-1,3′-bipiperidin-2-one] and `Nc1ncnc(N2CCC[C@@H](N3CCCC(Nc4cc(C(F)(F)F)cc(C(F)(F)F)c4)C3=O)C2)c1F` (stereo partly drawn) [compound 310, (3′R)-1′-(6-Amino-5-fluoropyrimidin-4-yl)-3-(3,5-bis(trifluoromethyl)phenylamino)-1,3′-bipiperidin-2-one] cannot be ordered by IC50: under 100 nM for the first, under 100 nM for the second.

`O=C(Nc1cccc(C2CCCN(c3ncnc4[nH]ccc34)C2)c1)Nc1ccccc1N1C[C@H](O)[C@@H](O)C1` (stereo partly drawn) [compound 150] and `O=C(Nc1cccc(C2CCCN(c3ncnc4[nH]ccc34)C2)c1)Nc1ccccc1N1C[C@@H](O)[C@@H](O)C1` (stereo partly drawn) [compound 148] cannot be ordered by IC50: under 100 nM for the first, under 100 nM for the second.

`O=C(NCC1CCCCN1)Nc1cccc(C2CCCN(c3ncnc4[nH]ccc34)C2)c1` (stereo not drawn) [compound 252] and `O=C(NCC1CCNCC1)Nc1cccc(C2CCCN(c3ncnc4[nH]ccc34)C2)c1` (stereo not drawn) [compound 231] cannot be ordered by IC50: over 10000 nM for the first, over 10000 nM for the second.

Compared with `O=C(Nc1cccc(C2CCCN(c3ncnc4[nH]ccc34)C2)c1)Nc1ccc(F)cc1N1CCCC1` (stereo not drawn) [compound 147], `O=C(Nc1cccc(C2CCCN(c3ncnc4[nH]ccc34)C2)c1)c1ccc[nH]1` (stereo not drawn) [compound 14, N-(3-(1-(7H-pyrrolo[2,3-d]pyrimidin-4-yl)piperidin-3-yl)phenyl)-1H-pyrrole-2-carboxamide] is higher in IC50: under 100 nM for the first, over 10000 nM for the second.
